Read-outs that look alike come from different tables or passages of the source.
Columns and labels:
Assay type in all cases: cell-based
hGIPR [1] = biological target: T1, hGIPR (Homo sapiens, UniProt P48546); experiment: Functional cAMP activity in the presence of 1% HSA; settings: read-out: cAMP Rel EC50, hGIPR
T1 sequence (P48546 22-466): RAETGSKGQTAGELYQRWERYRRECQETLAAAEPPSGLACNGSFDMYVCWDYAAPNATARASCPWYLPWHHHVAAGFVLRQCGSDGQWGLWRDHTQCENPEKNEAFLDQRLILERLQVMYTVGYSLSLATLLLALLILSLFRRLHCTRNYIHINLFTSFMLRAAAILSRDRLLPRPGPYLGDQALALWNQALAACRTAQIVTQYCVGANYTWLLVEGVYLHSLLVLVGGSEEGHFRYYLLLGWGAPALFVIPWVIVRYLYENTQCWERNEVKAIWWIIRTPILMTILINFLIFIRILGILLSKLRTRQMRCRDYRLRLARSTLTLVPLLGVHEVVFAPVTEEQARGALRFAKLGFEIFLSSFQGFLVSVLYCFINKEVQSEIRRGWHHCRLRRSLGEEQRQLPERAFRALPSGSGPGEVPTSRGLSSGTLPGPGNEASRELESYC

hGcgR = hGcgR (Homo sapiens, UniProt P47871); experiment: Functional cAMP activation in the presence of 0.1% casein (no HSA); settings: read-out: Relative cAMP EC50, hGcgR;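 note: intracellular cAMP rise after 30 min at 37 °C, read by HTRF against a cAMP standard curve, scaled from buffer only (0%) to maximal control ligand response (100%)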
hGIPR [2] = biological target: T1, hGIPR; experiment: as above; settings: read-out: Relative cAMP EC50, hGIPR
hGLP-1R [3] = biological target: T2, hGLP-1R (Homo sapiens, UniProt P43220); experiment: as above; settings: read-out: Relative cAMP EC50, hGLP-1R;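 note: intracellular cAMP rise after 30 min at 37 °C read by HTRF, normalized between buffer only (0%) and maximal control ligand (100%), four-parameter variable-slope fit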
human GcgR = human GcgR (Homo sapiens, UniProt P47871); experiment: Functional cAMP activity in the presence of 1% HSA; settings: read-out: cAMP Rel EC50, hGcgR
hGLP-1R [4] = biological target: T2, hGLP-1R; experiment: Functional cAMP activity in the presence of 1% HSA; settings: read-out: cAMP Rel EC50, hGLP-1R
[5] = HEK-293 clonal cell line, 1% HSA, geometric mean of relative EC50
[6] = in the presence of 0.1% casein (no HSA), geometric mean of relative EC50
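Throughout, for Relative cAMP EC50, hGIPR: intracellular cAMP rise after 30 min at 37 °C read by HTRF against a standard curve, scaled between buffer alone (0%) and top control ligand concentration (100%), four-parameter fit.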

T2 sequence (P43220 24-463): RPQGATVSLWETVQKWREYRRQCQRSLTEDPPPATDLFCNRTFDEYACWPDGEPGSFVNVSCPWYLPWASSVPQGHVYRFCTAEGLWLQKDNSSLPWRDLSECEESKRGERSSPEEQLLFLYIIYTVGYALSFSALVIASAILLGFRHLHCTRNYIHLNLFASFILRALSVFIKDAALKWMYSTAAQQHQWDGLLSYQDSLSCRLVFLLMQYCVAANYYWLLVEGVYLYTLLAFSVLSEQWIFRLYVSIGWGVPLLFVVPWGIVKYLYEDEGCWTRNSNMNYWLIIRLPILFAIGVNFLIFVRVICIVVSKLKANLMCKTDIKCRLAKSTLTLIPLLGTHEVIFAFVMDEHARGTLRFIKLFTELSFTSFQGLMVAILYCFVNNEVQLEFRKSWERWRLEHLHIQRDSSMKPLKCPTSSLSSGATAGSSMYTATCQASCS
Sequence of hGcgR (P47871 26-477): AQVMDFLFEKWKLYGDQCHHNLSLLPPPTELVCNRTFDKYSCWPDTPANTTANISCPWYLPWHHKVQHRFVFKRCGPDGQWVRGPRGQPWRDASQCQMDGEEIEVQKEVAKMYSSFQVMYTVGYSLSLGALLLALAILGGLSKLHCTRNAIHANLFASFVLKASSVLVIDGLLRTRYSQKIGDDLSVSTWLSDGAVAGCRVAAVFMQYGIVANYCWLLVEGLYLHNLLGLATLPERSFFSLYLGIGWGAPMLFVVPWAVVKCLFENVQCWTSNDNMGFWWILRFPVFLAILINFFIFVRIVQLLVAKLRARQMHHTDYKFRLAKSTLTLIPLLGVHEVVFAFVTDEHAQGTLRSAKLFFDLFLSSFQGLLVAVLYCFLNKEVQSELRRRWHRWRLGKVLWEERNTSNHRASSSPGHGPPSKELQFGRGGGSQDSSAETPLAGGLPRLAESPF
Sequence of human GcgR (P47871 26-477): as above

EC50 (hGIPR [1]; [5]) [nM]	EC50 (hGcgR; [6]) [nM]	EC50 (hGIPR [2]; [6]) [nM]	EC50 (hGLP-1R [3]; [6]) [nM]	EC50 (human GcgR; [5]) [nM]	EC50 (hGLP-1R [4]; [5]) [nM]	SMILES	EC50 (hGIPR [1]) [nM]	EC50 (hGcgR) [nM]	EC50 (hGIPR [2]) [nM]	EC50 (hGLP-1R [3]) [nM]	EC50 (human GcgR) [nM]	EC50 (hGLP-1R [4]) [nM]
12	1.05	0.0379	0.34	376	106	CC[C@H](C)[C@H](NC(=O)[C@H](Cc1ccccc1)NC(=O)[C@H](CCCN)NC(=O)C(C)(C)NC(=O)[C@H](CCC(N)=O)NC(=O)[C@H](C)NC(=O)[C@H](CCCCNC(=O)CC[C@H](NC(=O)CNC(=O)CCCCCCCCCCCCCCCCC(=O)O)C(=O)O)NC(=O)[C@H](CCCN)NC(=O)[C@H](CC(=O)O)NC(=O)[C@H](CC(C)C)NC(=O)[C@](C)(CC(C)C)NC(=O)[C@@H](NC(=O)[C@](C)(CO)NC(=O)[C@H](Cc1ccncc1)NC(=O)[C@H](CC(=O)O)NC(=O)[C@H](CO)NC(=O)[C@@H](NC(=O)[C@](C)(Cc1ccccc1F)NC(=O)[C@@H](NC(=O)CNC(=O)[C@H](CCC(N)=O)NC(=O)C(C)(C)NC(=O)[C@@H](N)Cc1ccc(O)cc1)[C@@H](C)O)[C@@H](C)O)[C@@H](C)CC)C(=O)N[C@H](CCC(=O)O)C(=O)N[C@@](C)(Cc1ccc(O)cc1)C(=O)N[C@@H](CC(C)C)C(=O)N[C@@H](CCC(N)=O)C(=O)N[C@@H](CCC(=O)O)C(=O)NCC(=O)NCC(=O)N1CCC[C@H]1C(=O)N[C@@H](CO)C(=O)N[C@@H](CO)C(=O)NCC(=O)N[C@@H](CCC(=O)O)C(=O)N1CCC[C@H]1C(=O)N1CCC[C@H]1C(=O)N1CCC[C@H]1C(=O)N[C@@H](CCC(=O)O)C(=O)NCC(=O)N[C@H](C(=O)N[C@@H](CCC(=O)O)C(=O)N[C@@H](CCC(=O)O)C(N)=O)[C@@H](C)O [Example 658]						
						CC[C@H](C)[C@H](NC(=O)[C@H](Cc1ccccc1)NC(=O)[C@H](C)NC(=O)C(C)(C)NC(=O)[C@H](CCC(N)=O)NC(=O)[C@H](C)NC(=O)[C@H](CCCCNC(=O)CC[C@H](NC(=O)CC[C@H](NC(=O)CCCCCCCCCCCCCCCCC(=O)O)C(=O)O)C(=O)O)NC(=O)[C@H](CCCCN)NC(=O)[C@H](CC(=O)O)NC(=O)[C@H](CC(C)C)NC(=O)[C@H](CC(C)C)NC(=O)[C@@H](NC(=O)[C@H](CO)NC(=O)[C@H](Cc1ccncc1)NC(=O)[C@H](CC(=O)O)NC(=O)[C@H](CO)NC(=O)[C@@H](NC(=O)[C@](C)(Cc1ccccc1F)NC(=O)[C@@H](NC(=O)CNC(=O)[C@H](CCC(N)=O)NC(=O)C(C)(C)NC(=O)[C@@H](N)Cc1ccc(O)cc1)[C@@H](C)O)[C@@H](C)O)[C@@H](C)CC)C(=O)N[C@@H](CCC(=O)O)C(=O)N[C@@H](Cc1ccc(O)cc1)C(=O)N[C@@H](CC(C)C)C(=O)N[C@@H](CCC(=O)O)C(=O)N[C@@H](CCC(=O)O)C(=O)NCC(=O)NCC(=O)N1CCC[C@H]1C(=O)N[C@@H](CO)C(=O)N[C@@H](CO)C(=O)NCC(=O)N[C@@H](C)C(=O)N1CCC[C@H]1C(=O)N1CCC[C@H]1C(=O)N1CCC[C@H]1C(=O)N[C@@H](CCC(=O)O)C(=O)NCC(=O)N[C@H](C(=O)NCC(=O)N[C@@H](CCC(=O)O)C(N)=O)[C@@H](C)O [Example 660]	4.64	7.38	0.0646	1.27	455	76.9
						CC[C@H](C)[C@H](NC(=O)[C@H](CC(C)C)NC(=O)[C@](C)(Cc1ccc(O)cc1)NC(=O)[C@@H](CCC(=O)O)NC(=O)[C@@H](NC(=O)[C@H](Cc1ccccc1)NC(=O)[C@H](CCC(=O)O)NC(=O)C(C)(C)NC(=O)[C@H](C)NC(=O)[C@H](C)NC(=O)[C@H](CCCCNC(=O)COCCOCCNC(=O)CC[C@H](NC(=O)CCCCCCCCCCCCCCCCC(=O)O)C(=O)O)NC(=O)[C@H](CCCN)NC(=O)[C@H](CC(=O)O)NC(=O)[C@H](CC(C)C)NC(=O)[C@](C)(CC(C)C)NC(=O)[C@@H](NC(=O)[C@](C)(CO)NC(=O)[C@H](Cc1ccncc1)NC(=O)[C@H](CC(=O)O)NC(=O)[C@H](CO)NC(=O)[C@@H](NC(=O)[C@](C)(Cc1ccccc1F)NC(=O)[C@@H](NC(=O)CNC(=O)[C@H](CCC(N)=O)NC(=O)C(C)(C)NC(=O)[C@@H](N)Cc1ccc(O)cc1)[C@@H](C)O)[C@@H](C)O)[C@@H](C)CC)[C@@H](C)CC)C(=O)N[C@@H](CCC(=O)O)C(=O)NCC(=O)NCC(=O)N1CCC[C@H]1C(=O)N[C@@H](CO)C(=O)N[C@@H](CO)C(=O)NCC(=O)N[C@@H](C)C(=O)N1CCC[C@H]1C(=O)N1CCC[C@H]1C(=O)N1CCC[C@H]1C(=O)N[C@@H](CO)C(=O)NCC(=O)N[C@@H](CO)C(N)=O [Example 671]	0.657	1.81	0.00807	0.166	152	17.6
						CC[C@H](C)[C@H](NC(=O)[C@H](CC(C)C)NC(=O)[C@](C)(Cc1ccc(O)cc1)NC(=O)[C@@H](CCC(=O)O)NC(=O)[C@@H](NC(=O)[C@H](Cc1ccccc1)NC(=O)[C@H](CCC(=O)O)NC(=O)C(C)(C)NC(=O)[C@H](C)NC(=O)[C@H](C)NC(=O)[C@H](CCCCNC(=O)COCCOCCNC(=O)CC[C@H](NC(=O)CCCCCCCCCCCCCCCCC(=O)O)C(=O)O)NC(=O)[C@H](CCCN)NC(=O)[C@H](CC(=O)O)NC(=O)[C@H](CC(C)C)NC(=O)[C@](C)(CC(C)C)NC(=O)[C@@H](NC(=O)[C@](C)(CO)NC(=O)[C@H](Cc1ccncc1)NC(=O)[C@H](CC(=O)O)NC(=O)[C@H](CO)NC(=O)[C@@H](NC(=O)[C@](C)(Cc1ccccc1F)NC(=O)[C@@H](NC(=O)CNC(=O)[C@H](CCC(N)=O)NC(=O)C(C)(C)NC(=O)[C@@H](N)Cc1ccc(O)cc1)[C@@H](C)O)[C@@H](C)O)[C@@H](C)CC)[C@@H](C)CC)C(=O)N[C@@H](CCC(=O)O)C(=O)NCC(=O)NCC(=O)N1CCC[C@H]1C(=O)N[C@@H](CO)C(=O)N[C@@H](CO)C(=O)NCC(=O)N[C@@H](C)C(=O)N1CCC[C@H]1C(=O)N1CCC[C@H]1C(=O)N1CCC[C@H]1C(=O)N[C@@H](CO)C(=O)NCC(=O)N[C@H](C(=O)NCC(=O)N[C@@H](CCC(=O)O)C(N)=O)[C@@H](C)O [Example 689]	0.951	1.81	0.0104	0.214	182	25.1
						CC[C@H](C)[C@H](NC(=O)[C@H](CC(C)C)NC(=O)[C@](C)(Cc1ccc(O)cc1)NC(=O)[C@@H](CCC(=O)O)NC(=O)[C@@H](NC(=O)[C@H](Cc1ccccc1)NC(=O)[C@H](CCC(=O)O)NC(=O)C(C)(C)NC(=O)[C@H](C)NC(=O)[C@H](C)NC(=O)[C@H](CCCCNC(=O)COCCOCCNC(=O)CC[C@H](NC(=O)CCCCCCCCCCCCCCCCC(=O)O)C(=O)O)NC(=O)[C@H](CCCN)NC(=O)[C@H](CC(=O)O)NC(=O)[C@H](CC(C)C)NC(=O)[C@](C)(CC(C)C)NC(=O)[C@@H](NC(=O)[C@](C)(CO)NC(=O)[C@H](Cc1ccncc1)NC(=O)[C@H](CC(=O)O)NC(=O)[C@H](CO)NC(=O)[C@@H](NC(=O)[C@](C)(Cc1ccccc1F)NC(=O)[C@@H](NC(=O)CNC(=O)[C@H](CCC(N)=O)NC(=O)C(C)(C)NC(=O)[C@@H](N)Cc1ccc(O)cc1)[C@@H](C)O)[C@@H](C)O)[C@@H](C)CC)[C@@H](C)CC)C(=O)N[C@@H](CCC(=O)O)C(=O)NCC(=O)NCC(=O)N1CCC[C@H]1C(=O)N[C@@H](CO)C(=O)N[C@@H](CO)C(=O)NCC(=O)N[C@@H](C)C(=O)N1CCC[C@H]1C(=O)N1CCC[C@H]1C(=O)N1CCC[C@H]1C(=O)N[C@@H](CO)C(=O)NCC(=O)N[C@@H](CO)C(=O)N[C@@H](CCC(=O)O)C(N)=O [Example 702]	1.25	1.5	0.0116	0.243	196	28.4

Reference: US20240270821A1, “GIP/GLP1/GCG TRI-RECEPTOR AGONISTS AND USES THEREOF” (priority 2023, published 2024)
